Read-outs that look alike come from different tables or passages of the source.
Tested on: HIV-1
Conditions: as part of an optimized regimen, plasma HIV-1 RNA
Procedure: Groups of HIV-1 positive patients were treated (as part of an optimized regimen) with ATC+either LPV or ATV, and compared to patients treated with 3TC+either LPV or ATV. Samples were taken after therapy to determine the number of patients who achieved an undetectable plasma HIV-1 RNA level (<50 copies/mL).

SMILES | Patients achieving <50 copies/mL, % (combined with 150 mg BID 3TC) | Patients achieving <50 copies/mL, n/N (combined with 150 mg BID 3TC) | Patients achieving <50 copies/mL, % (combined with 800 mg BID ATC) | Patients achieving <50 copies/mL, n/N (combined with 800 mg BID ATC)
COC(=O)N[C@H](C(=O)N[C@@H](Cc1ccccc1)[C@@H](O)CN(Cc1ccc(-c2ccccn2)cc1)NC(=O)[C@@H](NC(=O)OC)C(C)(C)C)C(C)(C)C [ATV, methyl N-[(1S)-1-{[(2S,3S)-3-hydroxy-4-[(2S)-2-[(methoxycarbonyl)amino]-3,3-dimethyl-N′-{[4-(pyridin-2-yl)phenyl]methyl}butanehydrazido]-1-phenylbutan-2-yl]carbamoyl}-2,2-dimethylpropyl]carbamate] | 42.9% | 6/14 | 66.7% | 8/12
Cc1cccc(C)c1OCC(=O)N[C@@H](Cc1ccccc1)[C@@H](O)C[C@H](Cc1ccccc1)NC(=O)[C@H](C(C)C)N1CCCNC1=O [LPV, Lopinavir] | 62% | 18/29 | 60% | 18/30

Reference: patent publication US20140315936A1, “AP[…] PI COMBINATION THERAPY” (AVEXA LIMITED, priority 2011, published 2014)
